Test results from paper PMC6801562, “PIEZO1 and TRPV4, which Are Distinct Mechano-Sensors in the Osteoblastic MC3T3-E1 Cells, Modify Cell-Proliferation” (International Journal of Molecular Sciences, 2019).

Columns and labels:
[1] = target: T1, TRPV4 (MC3T3-E1 cells) (Mus musculus, UniProt Q9EPK8); experiment: Fura-2 Ca2+ imaging, MC3T3-E1 cells, Hill fit; assay type: cell-based; details: agonist; native cells; pH 7.4, 2.2 mM Ca2+, n = 7
T1 construct: native full-length channel in mouse osteoblastic MC3T3-E1 cells (Riken Cell Bank); identity supported by siTRPV4 knockdown

[2] = target: T2, mouse PIEZO1 (mPIEZO1; HEK-mPiezo1) (Mus musculus, UniProt E2JF22); experiment: Fura-2 Ca2+ imaging, HEK cells, Hill fit; assay type: cell-based
T2 construct: mouse Piezo1 (Addgene) in pcDNA3.1 / pIRES2-AcGFP1, transiently transfected in HEK 293 cells; low endogenous human PIEZO1 in host
T2 sequence (E2JF22 whole entry): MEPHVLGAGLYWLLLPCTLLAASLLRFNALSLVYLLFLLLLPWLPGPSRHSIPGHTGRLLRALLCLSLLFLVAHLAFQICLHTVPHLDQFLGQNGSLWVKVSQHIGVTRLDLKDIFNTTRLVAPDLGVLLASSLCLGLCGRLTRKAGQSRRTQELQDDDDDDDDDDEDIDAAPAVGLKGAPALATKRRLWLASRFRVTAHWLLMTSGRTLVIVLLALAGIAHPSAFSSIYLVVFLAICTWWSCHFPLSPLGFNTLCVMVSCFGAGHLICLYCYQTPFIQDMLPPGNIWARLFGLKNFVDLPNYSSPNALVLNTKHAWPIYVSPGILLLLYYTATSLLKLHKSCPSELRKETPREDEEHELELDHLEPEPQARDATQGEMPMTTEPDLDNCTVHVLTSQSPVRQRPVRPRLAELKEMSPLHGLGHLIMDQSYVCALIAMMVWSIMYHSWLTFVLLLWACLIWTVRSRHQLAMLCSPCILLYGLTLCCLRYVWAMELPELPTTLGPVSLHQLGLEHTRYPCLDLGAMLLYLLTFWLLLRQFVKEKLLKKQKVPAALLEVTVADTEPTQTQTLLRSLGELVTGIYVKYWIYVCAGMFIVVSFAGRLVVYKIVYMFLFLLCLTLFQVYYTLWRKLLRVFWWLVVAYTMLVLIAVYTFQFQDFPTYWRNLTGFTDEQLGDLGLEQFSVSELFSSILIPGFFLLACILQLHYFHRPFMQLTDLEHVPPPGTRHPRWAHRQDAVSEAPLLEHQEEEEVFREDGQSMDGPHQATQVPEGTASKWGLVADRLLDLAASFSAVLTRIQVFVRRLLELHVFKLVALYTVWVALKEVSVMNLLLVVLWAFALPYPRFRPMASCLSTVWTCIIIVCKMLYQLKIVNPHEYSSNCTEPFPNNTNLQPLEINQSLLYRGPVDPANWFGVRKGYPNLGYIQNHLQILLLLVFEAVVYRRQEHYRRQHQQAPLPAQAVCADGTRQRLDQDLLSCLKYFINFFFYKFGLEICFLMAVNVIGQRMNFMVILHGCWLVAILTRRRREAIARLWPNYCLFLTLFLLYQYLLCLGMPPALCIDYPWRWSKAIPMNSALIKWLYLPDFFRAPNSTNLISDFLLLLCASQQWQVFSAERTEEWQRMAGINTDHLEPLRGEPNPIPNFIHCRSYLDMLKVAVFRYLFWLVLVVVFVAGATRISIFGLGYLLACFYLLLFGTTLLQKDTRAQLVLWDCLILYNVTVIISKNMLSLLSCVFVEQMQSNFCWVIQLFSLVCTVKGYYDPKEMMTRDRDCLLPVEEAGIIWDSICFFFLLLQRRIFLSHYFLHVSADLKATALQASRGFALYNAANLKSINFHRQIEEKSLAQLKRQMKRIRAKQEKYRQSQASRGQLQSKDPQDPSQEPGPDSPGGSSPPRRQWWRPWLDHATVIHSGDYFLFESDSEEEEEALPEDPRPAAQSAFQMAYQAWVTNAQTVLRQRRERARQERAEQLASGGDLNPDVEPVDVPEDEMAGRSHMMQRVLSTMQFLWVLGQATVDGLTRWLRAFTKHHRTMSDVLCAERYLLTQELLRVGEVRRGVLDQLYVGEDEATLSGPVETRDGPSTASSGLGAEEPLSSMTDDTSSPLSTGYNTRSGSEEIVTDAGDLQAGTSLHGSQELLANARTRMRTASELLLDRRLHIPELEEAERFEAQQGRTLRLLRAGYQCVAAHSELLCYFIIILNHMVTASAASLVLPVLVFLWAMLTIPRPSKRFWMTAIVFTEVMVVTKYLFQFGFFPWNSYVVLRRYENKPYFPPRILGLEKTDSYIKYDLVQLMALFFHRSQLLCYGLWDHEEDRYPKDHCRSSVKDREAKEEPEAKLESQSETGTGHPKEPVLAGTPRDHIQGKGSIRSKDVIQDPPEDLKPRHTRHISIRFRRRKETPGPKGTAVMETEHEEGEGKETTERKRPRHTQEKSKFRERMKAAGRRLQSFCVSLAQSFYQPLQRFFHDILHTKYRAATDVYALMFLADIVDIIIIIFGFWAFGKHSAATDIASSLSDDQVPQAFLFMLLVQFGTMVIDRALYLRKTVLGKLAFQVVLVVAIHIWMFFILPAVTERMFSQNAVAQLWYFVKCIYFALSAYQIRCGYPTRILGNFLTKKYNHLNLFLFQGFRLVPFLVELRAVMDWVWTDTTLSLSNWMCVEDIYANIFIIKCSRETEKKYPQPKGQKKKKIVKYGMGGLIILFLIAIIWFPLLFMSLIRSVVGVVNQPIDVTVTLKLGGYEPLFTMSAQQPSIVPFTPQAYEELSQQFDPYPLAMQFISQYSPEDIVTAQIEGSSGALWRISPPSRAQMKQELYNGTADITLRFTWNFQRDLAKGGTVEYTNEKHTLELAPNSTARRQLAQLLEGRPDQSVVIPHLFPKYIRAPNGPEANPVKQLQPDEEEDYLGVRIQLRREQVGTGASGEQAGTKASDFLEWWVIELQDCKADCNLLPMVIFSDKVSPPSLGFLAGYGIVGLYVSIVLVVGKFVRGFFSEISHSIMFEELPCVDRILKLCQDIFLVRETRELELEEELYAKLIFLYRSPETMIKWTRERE

T1 sequence (Q9EPK8 whole entry): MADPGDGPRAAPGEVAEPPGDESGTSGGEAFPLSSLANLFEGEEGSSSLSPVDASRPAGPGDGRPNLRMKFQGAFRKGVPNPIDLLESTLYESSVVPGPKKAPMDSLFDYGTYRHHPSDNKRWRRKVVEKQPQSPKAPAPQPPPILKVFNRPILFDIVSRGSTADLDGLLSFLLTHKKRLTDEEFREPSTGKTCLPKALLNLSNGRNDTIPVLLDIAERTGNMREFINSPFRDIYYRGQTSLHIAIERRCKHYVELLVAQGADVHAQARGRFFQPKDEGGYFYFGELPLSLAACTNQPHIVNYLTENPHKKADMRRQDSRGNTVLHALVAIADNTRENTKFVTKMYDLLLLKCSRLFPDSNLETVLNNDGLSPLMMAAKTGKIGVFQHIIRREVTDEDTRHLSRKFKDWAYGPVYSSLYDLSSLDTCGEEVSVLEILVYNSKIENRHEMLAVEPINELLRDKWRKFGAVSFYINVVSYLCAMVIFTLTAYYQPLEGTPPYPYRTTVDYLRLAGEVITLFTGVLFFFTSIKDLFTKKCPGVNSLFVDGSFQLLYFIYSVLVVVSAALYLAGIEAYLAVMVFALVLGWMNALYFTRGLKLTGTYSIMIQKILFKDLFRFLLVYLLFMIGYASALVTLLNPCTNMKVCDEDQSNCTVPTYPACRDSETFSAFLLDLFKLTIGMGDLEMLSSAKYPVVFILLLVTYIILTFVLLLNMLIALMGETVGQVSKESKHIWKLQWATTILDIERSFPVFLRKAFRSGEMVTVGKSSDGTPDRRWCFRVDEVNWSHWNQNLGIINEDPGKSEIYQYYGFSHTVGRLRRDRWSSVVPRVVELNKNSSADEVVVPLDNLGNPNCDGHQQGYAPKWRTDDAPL

EC50 [1] [nM] | EC50 [2] [nM] | SMILES
2.25 ± 0.45 |  | CC(C)C[C@H](NC(=O)c1cc2ccccc2s1)C(=O)N1CCN(C(=O)[C@H](CO)NS(=O)(=O)c2ccc(Cl)cc2Cl)CC1 [GSK1016790A]
 | 380 ± 70 | Clc1cccc(Cl)c1CSc1nnc(-c2cnccn2)s1 [Yoda1, 2-[5-[[(2,6-Dichlorophenyl)methyl]thio]-1,3,4-thiadiazol-2-yl]-pyrazine]
